Activity calls are given as the source filed them.
What was measured:
Interleukin-8 [1] = molecular target: T1, Interleukin-8 (Homo sapiens, UniProt P10145); assay: Dose Response confirmation of uHTS small molecule hits for cystic fibrosis induced NFkb Inhibitors in a PAF-induced IL8 counterscreen.; assay type: functional; details: read-out: IC50_Mean
T1 sequence (P10145 whole entry): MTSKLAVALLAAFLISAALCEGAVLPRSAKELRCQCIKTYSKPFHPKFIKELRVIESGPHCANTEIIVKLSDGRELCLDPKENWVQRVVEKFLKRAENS

Interleukin-8 [2] = molecular target: T1, Interleukin-8; assay: Dose Response confirmation of uHTS small molecule hits for cystic fibrosis induced NFkb Inhibitors in a TNFa-induced IL8 counterscreen.; assay type: functional; details: read-out: IC50_Mean
Steroidogenic factor 1 = Steroidogenic factor 1 (Homo sapiens, UniProt Q13285); assay: Counterscreen for inverse agonists of the liver receptor homolog-1 (LRH-1; NR5A2): Luminescence-based cell-based high throughput dose response assay to identify inverse agonists of the Steroidogenic Factor 1 Nuclear Receptor (SF1; NR5A1).; assay type: functional
[3] = nonselective StAR promoter luciferase inhibitors – cell-based, luminescence, luciferase reporter, counter-screen for LRH-1 inverse agonist project, dose response (AID 651969); assay type: functional
[4] = molecular target: Nuclear receptor subfamily 5 group A member 2 (Homo sapiens, UniProt O00482); assay type: functional, cell-based;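 note: HEK293T cells transfected with LRH-1 and a StAR promoter luciferase reporter; potency for inhibitors that lower LRH-1 driven reporter light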
[5] = molecular target: Ras and Rab interactor 1/Tyrosine-protein kinase ABL1 (Homo sapiens, UniProt P00519+Q13671); assay type: functional;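 note: biochemical TR-FRET dose-response test measuring inhibition of binding between Rin1 and Abl proteins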
[6] = molecular target: T2, Zinc finger protein mex-5 (Caenorhabditis elegans, UniProt Q9XUB2); assay: potency of MEX-5 RNA-binding blockers – biochemical, C. elegans, fluorescence polarization, dose response (AID 1960)
T2 sequence (Q9XUB2 whole entry): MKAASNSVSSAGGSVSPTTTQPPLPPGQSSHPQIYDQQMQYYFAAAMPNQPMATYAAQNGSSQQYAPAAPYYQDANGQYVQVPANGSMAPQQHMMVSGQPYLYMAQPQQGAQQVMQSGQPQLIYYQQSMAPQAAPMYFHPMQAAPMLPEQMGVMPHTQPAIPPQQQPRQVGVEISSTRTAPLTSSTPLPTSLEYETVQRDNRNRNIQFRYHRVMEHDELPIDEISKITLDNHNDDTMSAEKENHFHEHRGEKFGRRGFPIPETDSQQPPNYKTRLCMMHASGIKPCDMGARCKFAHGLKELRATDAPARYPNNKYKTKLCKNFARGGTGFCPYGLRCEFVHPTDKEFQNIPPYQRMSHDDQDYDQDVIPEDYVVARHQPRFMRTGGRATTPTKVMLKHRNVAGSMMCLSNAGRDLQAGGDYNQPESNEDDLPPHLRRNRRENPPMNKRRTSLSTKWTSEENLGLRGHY

[7] = molecular target: T3, Small ubiquitin-related modifier 1 (Homo sapiens, UniProt P63165); assay: SUMO1 protein interaction blockers, potency – biochemical, fluorescence polarization, uHTS hits, dose response (AID 624382); assay type: functional; details: read-out: IC50_Mean
[8] = molecular target: T4, Carboxy-terminal domain RNA polymerase II polypeptide A small phosphatase 1 (Homo sapiens, UniProt Q9GZU7); assay: CTDSP1 inhibitors, concentration-response, biochemical, absorbance readout, ultra-high-throughput screen actives (AID 540297); assay type: functional
T4 sequence (Q9GZU7 whole entry): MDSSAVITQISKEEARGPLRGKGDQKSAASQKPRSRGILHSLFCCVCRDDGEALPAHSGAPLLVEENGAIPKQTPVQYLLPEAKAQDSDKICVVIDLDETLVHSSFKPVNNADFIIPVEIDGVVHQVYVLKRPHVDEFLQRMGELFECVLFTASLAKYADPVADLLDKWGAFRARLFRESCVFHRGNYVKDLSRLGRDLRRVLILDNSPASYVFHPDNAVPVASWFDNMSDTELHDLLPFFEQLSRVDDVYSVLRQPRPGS

[9] = molecular target: T5, Low molecular weight phosphotyrosine protein phosphatase (Homo sapiens, UniProt P24666); assay type: functional; details: read-out: IC50_Mean
T5 sequence (P24666 whole entry): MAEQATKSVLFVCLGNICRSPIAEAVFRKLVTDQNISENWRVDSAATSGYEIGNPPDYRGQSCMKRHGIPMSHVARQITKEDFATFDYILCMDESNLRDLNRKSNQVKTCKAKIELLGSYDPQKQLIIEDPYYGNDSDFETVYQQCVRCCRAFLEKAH

[10] = molecular target: T5, Low molecular weight phosphotyrosine protein phosphatase; assay type: functional; details: read-out: IC50_Mean; remark: listed apart in the source
[11] = molecular target: T6, RNA-binding protein pos-1 (Caenorhabditis elegans, UniProt G5EF15); assay: disruptors of C. elegans POS-1 RNA interaction – biochemical, fluorescence polarization, dose response (AID 1964);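 note: purified POS-1 fused to maltose binding protein made in E. coli; potency of compounds blocking POS-1 binding to fluorescent RNA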
T6 sequence (G5EF15 whole entry): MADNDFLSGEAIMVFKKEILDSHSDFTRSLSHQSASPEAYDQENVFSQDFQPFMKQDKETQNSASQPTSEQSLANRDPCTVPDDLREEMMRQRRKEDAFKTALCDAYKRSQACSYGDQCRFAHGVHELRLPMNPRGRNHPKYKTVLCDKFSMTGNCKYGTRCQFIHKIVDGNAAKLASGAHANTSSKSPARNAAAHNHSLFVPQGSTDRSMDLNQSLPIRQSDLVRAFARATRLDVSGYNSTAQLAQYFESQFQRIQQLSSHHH

[12] = molecular target: T3, Small ubiquitin-related modifier 1; assay: SUMO1 protein-protein binding blockers, potency – biochemical, FRET, dose response (AID 624383); assay type: functional; details: read-out: IC50_Mean
[13] = molecular target: DNA dC->dU-editing enzyme APOBEC-3A (Homo sapiens, UniProt P31941); assay: SAR analysis of small molecule inhibitors of APOBEC3A DNA Deaminase via a fluorescence-based single-stranded DNA deaminase assay.; assay type: functional; details: read-out: IC50_Mean
[14] = molecular target: DNA dC->dU-editing enzyme APOBEC-3G (Homo sapiens, UniProt Q9HC16); assay: inhibition of APOBEC3G ssDNA deamination – biochemical, fluorescence, single-stranded DNA substrate, SAR follow-up (AID 602136); assay type: functional; details: read-out: IC50_Mean
[15] = inhibition of ARNT PAS-B/TACC3 complex formation – biochemical, AlphaScreen, cherry-picked samples, confirmation (AID 651703); assay type: functional, Homo sapiens;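 note: His-tagged ARNT PAS-B domain paired with GST-TACC3 E629A dimer coactivator fragment; potency of inhibitors that break up the complex and lower AlphaScreen signal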

T3 sequence (P63165 whole entry, the tested form may be a part): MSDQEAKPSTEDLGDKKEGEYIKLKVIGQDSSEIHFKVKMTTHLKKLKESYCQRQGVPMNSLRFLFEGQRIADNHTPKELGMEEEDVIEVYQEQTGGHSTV
Chain of DNA dC->dU-editing enzyme APOBEC-3G (Q9HC16 whole entry, the tested form may be a part): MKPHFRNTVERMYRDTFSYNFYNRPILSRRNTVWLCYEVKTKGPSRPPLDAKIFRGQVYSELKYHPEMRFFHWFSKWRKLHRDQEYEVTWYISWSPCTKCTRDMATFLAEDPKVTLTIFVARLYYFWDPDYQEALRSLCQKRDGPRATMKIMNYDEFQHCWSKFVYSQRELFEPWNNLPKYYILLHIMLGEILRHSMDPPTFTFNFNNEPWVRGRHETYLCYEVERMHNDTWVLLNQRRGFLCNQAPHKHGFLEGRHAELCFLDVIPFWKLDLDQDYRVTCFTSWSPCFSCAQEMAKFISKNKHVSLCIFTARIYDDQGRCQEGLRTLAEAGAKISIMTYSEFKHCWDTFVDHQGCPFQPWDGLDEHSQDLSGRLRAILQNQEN
Chain of Ras and Rab interactor 1/Tyrosine-protein kinase ABL1 (P00519 whole entry): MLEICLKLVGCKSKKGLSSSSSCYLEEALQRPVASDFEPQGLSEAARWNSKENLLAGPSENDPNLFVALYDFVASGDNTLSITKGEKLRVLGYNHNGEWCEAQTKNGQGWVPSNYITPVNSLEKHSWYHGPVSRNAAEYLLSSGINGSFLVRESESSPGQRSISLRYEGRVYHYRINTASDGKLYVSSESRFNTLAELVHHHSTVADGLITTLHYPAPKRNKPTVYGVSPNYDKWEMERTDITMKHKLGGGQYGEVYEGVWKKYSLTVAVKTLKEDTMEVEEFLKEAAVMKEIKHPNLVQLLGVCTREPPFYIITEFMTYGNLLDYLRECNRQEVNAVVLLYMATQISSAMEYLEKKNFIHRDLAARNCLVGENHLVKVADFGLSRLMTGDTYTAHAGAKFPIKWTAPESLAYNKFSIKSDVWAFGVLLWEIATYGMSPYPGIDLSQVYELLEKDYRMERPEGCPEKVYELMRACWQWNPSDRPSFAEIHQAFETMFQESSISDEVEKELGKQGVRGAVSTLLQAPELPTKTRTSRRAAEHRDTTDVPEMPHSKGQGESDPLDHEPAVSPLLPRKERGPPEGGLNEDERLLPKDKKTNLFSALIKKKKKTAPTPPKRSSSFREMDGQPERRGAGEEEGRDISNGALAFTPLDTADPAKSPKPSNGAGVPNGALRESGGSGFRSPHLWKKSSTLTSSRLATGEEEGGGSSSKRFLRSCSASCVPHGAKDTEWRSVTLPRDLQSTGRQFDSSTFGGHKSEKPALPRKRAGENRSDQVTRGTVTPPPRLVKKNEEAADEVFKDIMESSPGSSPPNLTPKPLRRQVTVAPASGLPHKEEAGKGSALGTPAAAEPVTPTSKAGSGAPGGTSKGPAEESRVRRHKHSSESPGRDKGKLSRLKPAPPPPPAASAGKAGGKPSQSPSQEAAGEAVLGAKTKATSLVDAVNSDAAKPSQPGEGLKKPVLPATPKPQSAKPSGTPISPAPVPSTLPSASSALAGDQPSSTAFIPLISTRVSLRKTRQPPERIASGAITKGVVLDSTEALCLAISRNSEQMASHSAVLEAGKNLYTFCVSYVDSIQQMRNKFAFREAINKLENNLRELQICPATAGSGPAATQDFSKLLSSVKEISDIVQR
Chain of Ras and Rab interactor 1/Tyrosine-protein kinase ABL1 (Q13671 whole entry): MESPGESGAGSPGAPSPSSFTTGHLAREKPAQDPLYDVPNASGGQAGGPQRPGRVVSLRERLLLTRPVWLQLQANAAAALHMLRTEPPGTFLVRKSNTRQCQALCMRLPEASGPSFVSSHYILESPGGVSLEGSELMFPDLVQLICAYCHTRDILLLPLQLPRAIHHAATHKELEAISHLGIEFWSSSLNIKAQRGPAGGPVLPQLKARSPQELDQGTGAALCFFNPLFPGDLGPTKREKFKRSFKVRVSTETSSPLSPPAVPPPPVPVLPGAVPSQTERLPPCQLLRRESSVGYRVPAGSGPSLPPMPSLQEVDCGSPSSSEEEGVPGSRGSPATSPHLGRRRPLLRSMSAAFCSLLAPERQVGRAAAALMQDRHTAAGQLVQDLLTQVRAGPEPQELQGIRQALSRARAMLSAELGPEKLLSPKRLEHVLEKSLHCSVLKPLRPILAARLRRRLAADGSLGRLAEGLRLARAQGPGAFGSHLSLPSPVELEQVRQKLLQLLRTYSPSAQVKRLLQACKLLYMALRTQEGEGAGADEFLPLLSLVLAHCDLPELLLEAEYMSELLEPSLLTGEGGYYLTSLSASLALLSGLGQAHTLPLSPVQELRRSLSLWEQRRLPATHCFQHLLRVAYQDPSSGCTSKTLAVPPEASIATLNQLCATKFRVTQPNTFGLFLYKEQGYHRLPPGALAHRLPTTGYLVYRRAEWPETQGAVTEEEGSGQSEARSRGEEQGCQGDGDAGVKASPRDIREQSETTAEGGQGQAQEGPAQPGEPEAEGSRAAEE
Chain of DNA dC->dU-editing enzyme APOBEC-3A (P31941 whole entry): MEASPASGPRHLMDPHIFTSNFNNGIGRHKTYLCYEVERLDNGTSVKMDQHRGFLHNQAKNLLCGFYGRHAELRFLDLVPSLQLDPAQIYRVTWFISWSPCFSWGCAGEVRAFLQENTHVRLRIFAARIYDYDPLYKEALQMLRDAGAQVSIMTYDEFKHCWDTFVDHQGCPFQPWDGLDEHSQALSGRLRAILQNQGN
Chain of Nuclear receptor subfamily 5 group A member 2 (O00482 whole entry): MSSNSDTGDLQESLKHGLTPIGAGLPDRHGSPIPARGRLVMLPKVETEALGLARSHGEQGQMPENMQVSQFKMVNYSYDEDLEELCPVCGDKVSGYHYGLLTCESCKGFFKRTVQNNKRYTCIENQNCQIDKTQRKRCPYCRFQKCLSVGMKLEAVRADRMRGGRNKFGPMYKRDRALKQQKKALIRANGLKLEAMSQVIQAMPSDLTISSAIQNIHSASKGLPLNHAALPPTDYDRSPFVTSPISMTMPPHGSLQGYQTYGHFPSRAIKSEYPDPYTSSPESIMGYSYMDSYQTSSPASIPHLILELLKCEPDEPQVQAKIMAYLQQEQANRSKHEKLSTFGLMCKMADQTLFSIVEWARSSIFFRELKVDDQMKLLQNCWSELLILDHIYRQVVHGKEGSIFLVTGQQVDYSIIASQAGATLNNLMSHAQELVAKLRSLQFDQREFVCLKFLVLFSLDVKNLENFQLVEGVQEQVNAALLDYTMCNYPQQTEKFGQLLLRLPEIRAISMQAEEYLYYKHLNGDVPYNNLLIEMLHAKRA
Chain of Steroidogenic factor 1 (Q13285 whole entry): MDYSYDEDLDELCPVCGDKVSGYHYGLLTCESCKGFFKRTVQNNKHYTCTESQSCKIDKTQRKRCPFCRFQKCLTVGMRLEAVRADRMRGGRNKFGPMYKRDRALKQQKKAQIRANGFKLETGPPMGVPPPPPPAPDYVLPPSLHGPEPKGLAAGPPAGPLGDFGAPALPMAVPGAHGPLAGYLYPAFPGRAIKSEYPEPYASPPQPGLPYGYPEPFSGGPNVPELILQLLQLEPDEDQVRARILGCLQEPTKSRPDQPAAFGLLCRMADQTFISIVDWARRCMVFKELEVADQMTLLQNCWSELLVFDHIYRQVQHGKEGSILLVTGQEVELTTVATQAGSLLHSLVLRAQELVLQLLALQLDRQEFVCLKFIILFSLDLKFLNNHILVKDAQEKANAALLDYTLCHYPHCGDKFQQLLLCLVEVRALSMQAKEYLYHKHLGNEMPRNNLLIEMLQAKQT

Compound: CS(=O)(=O)c1ccc2nc(NC(=O)CCS(=O)(=O)c3ccccc3)sc2c1
- IC50 (Interleukin-8 [1]): 1.36 µM (active)
- IC50 (Interleukin-8 [2]): 1.5 µM (active)

Compound: CCC(C)(C)n1nnnc1CN1CCC(O)(c2cccc(C(F)(F)F)c2)CC1
- IC50 (Steroidogenic factor 1): 12.4 µM (inactive)
- IC50 [3]: 35.9 µM (inactive)
- IC50 [4]: 9.63 µM (active)

Compound: C[C@]12CC[C@H](O)C[C@@H]1CC(=O)[C@@H]1[C@@H]2CC[C@]2(C)C(=O)CC[C@@H]12
- IC50 [5]: 33.8 µM (inactive)

Compound: C=CC1=C(C(=O)O)N2C(=O)[C@@H](NC(=O)/C(=N\O)c3csc(N)n3)[C@H]2SC1 (stereo in doubt)
- EC50 [6]: 33.3 µM (active)
- IC50 [7]: > 66.6 µM (inactive)
- IC50 [8]: 4.48 µM (active)
- IC50 [9]: 19.6 µM (active)
- IC50 [10]: 21.5 µM (inactive)
- EC50 [11]: 49.8 µM (active)
- IC50 [12]: 6.25 µM (active)

Compound: CCCn1c(=O)c2ccccc2n2c(SCC(=O)NCc3ccccc3)nnc12
- IC50 [13]: > 99 µM (inactive)
- IC50 [14]: > 99 µM (inactive)

Compound: CC1=CC(C)(C)N(C(=O)C(C)N2C(=O)c3ccccc3C2=O)c2ccc(C)cc21 (stereo not drawn)
- AC50 [15]: 119 µM (active)

Compound: COCCNc1nc(NCc2ccc(NC(C)=O)cc2)c2sccc2n1
- IC50 [9]: 17.5 µM (active)
- IC50 [10]: 15.4 µM (active)
